Assay [1] in a line: DRUGMATRIX: GABAA, Chloride Channel, TBOB radioligand binding (ligand: [3H] TBOB). The format is cell membranes, Rattus norvegicus, Wistar, Cerebral cortex, Membrane. Conditions: Not Active = under 50% inhibition at 10 µM.
A short description of assay [2]: DRUGMATRIX: Potassium Channel [KATP] radioligand binding (ligand: [3H] Glyburide). The format is cell membranes, Membrane. Conditions: hit-t15; Not Active = under 50% inhibition at 10 µM.
A further assay deals with Melanocortin receptor 3 (Homo sapiens, UniProt P41968). The format is cell membranes, Membrane. Conditions: hek293.
Assay [3] has as its target 5-hydroxytryptamine receptor 6 (Homo sapiens, UniProt P50406). The format is cell membranes, HeLa, Membrane. Note: in other assays of this panel Not Active means under 50% inhibition at 10 µM.
A short description of assay [4]: DRUGMATRIX: Glutamate, NMDA, Phencyclidine radioligand binding (ligand: [3H] TCP). The format is cell membranes, Rattus norvegicus, Wistar, Cerebral cortex, Membrane. Conditions: Not Active = under 50% inhibition at 10 µM.
The target in another assay is T1, Caspase-1 (Homo sapiens, UniProt P29466).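 Note: Caspase-1 enzyme inhibition assay with a peptide substrate; in other assays of this panel Not Active means under 50% inhibition at 10 µM.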
T1 sequence (P29466 whole entry): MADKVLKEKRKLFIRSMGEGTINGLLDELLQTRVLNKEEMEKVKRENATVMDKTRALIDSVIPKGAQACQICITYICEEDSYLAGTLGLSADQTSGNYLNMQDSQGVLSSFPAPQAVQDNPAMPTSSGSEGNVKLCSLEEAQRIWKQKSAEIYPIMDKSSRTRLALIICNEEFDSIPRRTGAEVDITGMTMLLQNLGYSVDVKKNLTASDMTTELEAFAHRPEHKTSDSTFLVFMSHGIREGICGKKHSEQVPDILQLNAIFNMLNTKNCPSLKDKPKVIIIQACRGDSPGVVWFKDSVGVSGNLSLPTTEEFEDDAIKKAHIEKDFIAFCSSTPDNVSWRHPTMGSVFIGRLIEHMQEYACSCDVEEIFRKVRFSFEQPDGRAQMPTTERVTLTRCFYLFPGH
Also noted: species or system Escherichia coli.

The text below walks through data of ChEMBL document CHEMBL1909046, “DrugMatrix in vitro pharmacology data”.

5-hydroxytryptamine receptor 6, sequence (P50406 whole entry): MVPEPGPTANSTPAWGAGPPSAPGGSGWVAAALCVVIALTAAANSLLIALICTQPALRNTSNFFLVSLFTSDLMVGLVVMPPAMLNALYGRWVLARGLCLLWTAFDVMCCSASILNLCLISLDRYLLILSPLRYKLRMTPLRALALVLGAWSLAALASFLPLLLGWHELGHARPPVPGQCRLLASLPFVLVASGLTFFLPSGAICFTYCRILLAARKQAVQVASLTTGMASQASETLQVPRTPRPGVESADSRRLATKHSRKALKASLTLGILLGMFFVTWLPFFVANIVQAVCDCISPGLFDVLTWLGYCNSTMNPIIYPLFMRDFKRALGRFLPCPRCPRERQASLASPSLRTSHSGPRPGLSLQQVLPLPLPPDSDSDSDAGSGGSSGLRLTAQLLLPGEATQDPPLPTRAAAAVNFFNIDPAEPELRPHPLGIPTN
Melanocortin receptor 3, sequence (P41968 whole entry): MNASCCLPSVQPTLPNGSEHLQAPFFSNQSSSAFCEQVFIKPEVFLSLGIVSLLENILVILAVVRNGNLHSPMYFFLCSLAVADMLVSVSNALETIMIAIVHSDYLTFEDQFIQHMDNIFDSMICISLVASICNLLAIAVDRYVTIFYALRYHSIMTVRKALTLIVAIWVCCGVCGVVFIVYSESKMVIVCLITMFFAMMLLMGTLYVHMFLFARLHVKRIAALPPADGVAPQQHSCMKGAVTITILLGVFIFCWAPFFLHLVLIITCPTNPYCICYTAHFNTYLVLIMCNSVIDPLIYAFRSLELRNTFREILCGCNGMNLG

For the compound `ClC(Cl)(Cl)Cl` [CARBON TETRACHLORIDE], the IC50 entry (in assay [1]; in assay [2]; at Melanocortin receptor 3; in assay [3] (hela); in assay [4]; against Caspase-1) was “Not Active” throughout. The Ki entry in assay [1], in assay [2] and in assay [4] was “Not Active” in each case.

Consider `CO/N=C(\C(=O)N[C@@H]1C(=O)N2C(C(=O)O)=C(COC(C)=O)CS[C@H]12)c1csc(N)n1` [CEFOTAXIME], for which the IC50 result (in assay [1]; in assay [2]; on Melanocortin receptor 3; in assay [3] (hela); in assay [4]; at Caspase-1) was “Not Active” throughout. Also, the Ki result in assay [1], in assay [2] and in assay [4] was “Not Active” in each case.

For `CNC1=Nc2ccc(Cl)cc2C(c2ccccc2)=[N+]([O-])C1` [CHLORDIAZEPOXIDE], the IC50 entry (in assay [1]; in assay [2]; against Melanocortin receptor 3; in assay [3] (hela); in assay [4]; against Caspase-1) was “Not Active” throughout. Moreover, the Ki entry in assay [1], in assay [2] and in assay [4] was “Not Active” in each case.

Take `Cc1cc(O)cc(C)c1Cl` [CHLOROXYLENOL]: the IC50 entry (in assay [1]; in assay [2]; at Melanocortin receptor 3; in assay [3] (hela); in assay [4]; on Caspase-1) was “Not Active” in each case. The Ki entry in assay [1], in assay [2] and in assay [4] was “Not Active” in each case.

Turning to `CCCNC(=O)NS(=O)(=O)c1ccc(Cl)cc1` [CHLORPROPAMIDE], the IC50 result (in assay [1]; in assay [2]; against Melanocortin receptor 3; in assay [3] (hela); in assay [4]; against Caspase-1) was “Not Active” in each case. The Ki result in assay [1], in assay [2] and in assay [4] was “Not Active” each time.

For `NS(=O)(=O)c1cc(C2(O)NC(=O)c3ccccc32)ccc1Cl` (centres undefined) [CHLORTHALIDONE], the IC50 result (in assay [1]; in assay [2]; against Melanocortin receptor 3; in assay [3] (hela); in assay [4]; against Caspase-1) was “Not Active” in each case. Besides, the inhibition constant Ki result in assay [1], in assay [2] and in assay [4] was “Not Active” throughout.

As to `O=C(O)CC(O)(CC(=O)O)C(=O)O` [CITRIC ACID], the IC50 result (in assay [1]; in assay [2]; against Melanocortin receptor 3; in assay [3] (hela); in assay [4]; against Caspase-1) was “Not Active” in each case. For the same compound, the Ki result in assay [1], in assay [2] and in assay [4] was “Not Active” each time.

For the compound `CC(C)NCC(O)c1ccccc1Cl` (centres undefined) [CLORPRENALINE], the IC50 result (in assay [1]; in assay [2]; on Melanocortin receptor 3; in assay [3] (hela); in assay [4]; at Caspase-1) was “Not Active” in each case. Also, the Ki entry in assay [1], in assay [2] and in assay [4] was “Not Active” each time.

As to `CN1CCN(C(c2ccccc2)c2ccccc2)CC1` [CYCLIZINE], the concentration for half-maximal inhibition (IC50) entry (in assay [1]; in assay [2]; against Melanocortin receptor 3; in assay [3] (hela); in assay [4]; against Caspase-1) was “Not Active” throughout. The Ki entry in assay [1], in assay [2] and in assay [4] was “Not Active” in each case.

Turning to `CN1C[C@@H]2C[C@H]1CN2c1cc2c(cc1F)c(=O)c(C(=O)O)cn2C1CC1` [DANOFLOXACIN], the IC50 result (in assay [1]; in assay [2]; on Melanocortin receptor 3; in assay [3] (hela); in assay [4]; at Caspase-1) was “Not Active” throughout. The Ki result in assay [1], in assay [2] and in assay [4] was “Not Active” throughout.

`COc1cccc2c1C(=O)c1c(O)c3c(c(O)c1C2=O)C[C@@](O)(C(C)=O)C[C@@H]3O[C@H]1C[C@H](N)[C@H](O)[C@H](C)O1` [DAUNORUBICIN]: the IC50 entry (in assay [1]; in assay [2]; on Melanocortin receptor 3; in assay [3] (hela); in assay [4]; on Caspase-1) was “Not Active” in each case. Also, the Ki result in assay [1], in assay [2] and in assay [4] was “Not Active” in each case.

In the case of `O=C(O)c1cc(-c2ccc(F)cc2F)ccc1O` [DIFLUNISAL], the IC50 entry (in assay [1]; in assay [2]; against Melanocortin receptor 3; in assay [3] (hela); in assay [4]; against Caspase-1) was “Not Active” throughout. Moreover, the Ki result in assay [1], in assay [2] and in assay [4] was “Not Active” each time.

Turning to `C[S+](C)[O-]` [DIMETHYL SULFOXIDE], the IC50 entry (in assay [1]; in assay [2]; at Melanocortin receptor 3; in assay [3] (hela); in assay [4]; against Caspase-1) was “Not Active” each time. In addition, the Ki result in assay [1], in assay [2] and in assay [4] was “Not Active” throughout.

With `CC1=NN(c2ccccc2)C(=O)C1` [EDARAVONE], the IC50 entry (in assay [1]; in assay [2]; against Melanocortin receptor 3; in assay [3] (hela); in assay [4]; at Caspase-1) was “Not Active” throughout. The inhibition constant Ki entry in assay [1], in assay [2] and in assay [4] was “Not Active” in each case.

Turning to `CC(C)C[C@H]1C(=O)N2CCC[C@H]2[C@]2(O)O[C@](NC(=O)[C@@H]3C=C4c5cccc6[nH]cc(c56)C[C@H]4N(C)C3)(C(C)C)C(=O)N12` [ERGOCRYPTINE], the IC50 (as a rule, the midpoint of a concentration-inhibition curve) was “Not Active” in assay [1]; “Not Active” in assay [2]; “Not Active” at Melanocortin receptor 3; 0.016 µM in assay [3] (read-out: IC50); “Not Active” in assay [4]; “Not Active” against Caspase-1. Moreover, the Ki (in general, a dissociation constant, usually derived from enzyme kinetics or from competition with a known ligand) was “Not Active” in assay [1], “Not Active” in assay [2], 0.00756 µM in assay [3] (read-out: Ki) and “Not Active” in assay [4].

Consider `C[C@]12CC[C@@H]3c4ccc(O)cc4CC[C@H]3[C@@H]1C[C@@H](O)[C@@H]2O` [ESTRIOL], for which the IC50 entry (in assay [1]; in assay [2]; on Melanocortin receptor 3; in assay [3] (hela); in assay [4]; on Caspase-1) was “Not Active” each time. In addition, the Ki entry in assay [1], in assay [2] and in assay [4] was “Not Active” each time.

For `C#C[C@]1(O)CC[C@H]2[C@@H]3CCC4=CC(=O)CC[C@]4(C)[C@H]3CC[C@@]21C` [ETHISTERONE], the IC50 entry (in assay [1]; in assay [2]; at Melanocortin receptor 3; in assay [3] (hela); in assay [4]; against Caspase-1) was “Not Active” in each case. The Ki result in assay [1], in assay [2] and in assay [4] was “Not Active” throughout.
